This passage reports TGI results from PubChem BioAssay (NCI).

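Dose response: 5 concentrations. Exposure: 48 h. Format: 96-well plates. Endpoint: linear interpolation; highest concentration if not reached. The concentration for full growth arrest is given as TGI.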

Test in all cases: NCI-60 cell line screen, 48 h
The test system of assay [1] is CCRF-CEM leukemia.
Assay [2] deals with UACC-257 melanoma.
Assay [3] deals with SW-620 colon.
In assay [4] the test system is NCI-H23 lung.
Assay [5] relates to HOP-62 NSCLC.
In assay [6] the test system is SNB-19 CNS.
Assay [7] deals with MOLT-4 leukemia.
Assay [8] relates to CAKI-1 renal.
In assay [9] the test system is MDA-MB-231 breast.
For assay [10], the system named is OVCAR-5 ovarian.
Assay [11] deals with SF-268 CNS.
For assay [12], the system named is HOP-92 NSCLC.
Assay [13] relates to A549 NSCLC.
Assay [14] relates to SF-539 CNS.
The subject of assay [15] is UO-31 renal.
Assay [16] relates to SK-MEL-28 melanoma.
The subject of assay [17] is MCF7 breast.
Assay [18] concerns U251 CNS.
Assay [19] concerns SK-MEL-2 melanoma.

Consider `CNCCCNC1(c2cc3ccccc3s2)CCCCC1`, for which the TGI in assay [1] was 4.51 µM; in [2], 3.35 µM; in assay [3], 26.3 µM; in [4], 30.6 µM; in assay [5], 22.4 µM; in [6] it was 24.8 µM. Also, the TGI in assay [7] was found to be 7.48 µM; in assay [8], 22.1 µM; in assay [9], 12.6 µM; in assay [10] it was 27.5 µM; in [11] it was 25.3 µM; in [12], 14.8 µM. Moreover, the TGI in assay [13] is 20.4 µM; in assay [14], 7.37 µM; in assay [15], 7.36 µM; in [16], 3.91 µM; in assay [17], 15.5 µM; in assay [18] it was 16.4 µM. Also, the TGI in assay [19] was determined as 10.9 µM.
Take `O=C1N=NC(=O)N1c1cc(C(F)(F)F)cc(C(F)(F)F)c1`: the TGI in assay [1] is more than 45 µM; in assay [2], 12.2 µM; in assay [3], more than 45.6 µM; in [4], 6.48 µM; in assay [5] it was 15 µM; in assay [6], more than 40.8 µM. The TGI in assay [7] was found to be 40.3 µM; in assay [8], 10.2 µM; in assay [9], 6.55 µM; in assay [10], 30.5 µM; in [11], 17.3 µM; in assay [12], 8.25 µM. Also, the TGI was 12 µM in assay [13]; 20.7 µM in assay [14]; 7.89 µM in assay [15]; 44.3 µM in assay [16]; more than 32.4 µM in [17]; 12.4 µM in [18]. Further, the TGI in assay [19] worked out at 5.57 µM.
Turning to `CC(=O)NC1C(OC2C(CO)OC(OCC3OC(n4ccc(N)nc4=O)C(O)C3O)C(NC(C)=O)C2O)OC(CO)C(O)C1O` (stereo not drawn), the TGI in assay [1], in assay [2], in assay [3], in assay [4], in assay [5] and in assay [6] was more than 100 µM each time. Further, the TGI in assay [7], in assay [8], in assay [9], in assay [10], in assay [11] and in assay [12] was more than 100 µM throughout. The TGI in [13], in [14], in assay [15], in assay [16], in [17] and in assay [18] was more than 100 µM each time. The compound further yielded a TGI in assay [19] of more than 100 µM.
In the case of `CC[C@@H]1CC[C@@H]2[C@H](CC[C@]3(C)[C@@H](O)CC[C@@H]23)[C@H]1CO`, the TGI in [1], in assay [2], in [3], in [4], in assay [5] and in assay [6] was more than 100 µM throughout. Further, the TGI in assay [7], in [8], in assay [9], in assay [10], in assay [11] and in assay [12] was more than 100 µM throughout. Also, the TGI in assay [13], in assay [14], in assay [15], in [16], in [17] and in assay [18] was more than 100 µM each time. Also, the TGI in assay [19] is more than 100 µM.
In the case of `CCOC(=O)c1c[nH]cc1-c1cn(S(=O)(=O)c2ccccc2)cc1C`, the TGI in assay [1] is more than 100 µM; in assay [2], 37.6 µM; in assay [3] it was more than 10 µM; in assay [4] it was 69.8 µM; in assay [5] it was more than 100 µM; in [6], more than 100 µM. For the same compound, the TGI in [7] was more than 100 µM; in assay [8], 48.4 µM; in assay [9], more than 100 µM; in assay [10] it was more than 100 µM; in assay [11], 78.6 µM; in [12] it was more than 100 µM. In addition, the TGI in assay [13] was more than 100 µM; in assay [14] it was 53.5 µM; in assay [15], more than 100 µM; in [16], 38.4 µM; in assay [17], 61 µM; in assay [18], 85.4 µM. In [19], this compound had a TGI of more than 100 µM.
Turning to `Cc1coc2c1C(=O)C(=O)c1c-2ccc2c1CCCC2(C)C`, the TGI in assay [1] is more than 100 µM; in [2], 2.37 µM; in assay [3], 12.5 µM; in assay [4], 2.8 µM; in assay [5], 12.1 µM; in assay [6], 22.8 µM. Further, the TGI was more than 100 µM in assay [7]; 5.15 µM in assay [8]; more than 100 µM in assay [9]; 28.5 µM in assay [10]; more than 100 µM in assay [11]; more than 100 µM in assay [12]. Besides, the TGI in [13] is 11.9 µM; in [14], 7.59 µM; in assay [15], 14.2 µM; in [16], 7.52 µM; in assay [17] it was 5.89 µM; in assay [18] it was more than 100 µM. The compound further returned a TGI in [19] of 6.94 µM.
As for `N#Cc1cc(N(CCCl)CCCl)c([N+](=O)[O-])cc1[N+](=O)[O-]`, the TGI in assay [1] was 98.2 µM; in assay [2], more than 100 µM; in [3], more than 100 µM; in [4] it was more than 100 µM; in assay [5] it was more than 100 µM; in assay [6] it was more than 100 µM. For the same compound, the TGI in [7] is more than 100 µM; in [8], 69.8 µM; in [9], more than 100 µM; in assay [10] it was more than 100 µM; in [11], more than 100 µM; in assay [12] it was more than 100 µM. Moreover, the TGI in assay [13], in assay [14], in assay [15], in assay [16], in [17] and in [18] was more than 100 µM throughout. The compound further showed a TGI in assay [19] of more than 100 µM.
